Values joined by “and” are separate entries in the source; they are usually repeats but may differ in a detail not shown here. Equal entries are not always repeated. “Also recorded” adds a separate entry of the source.
Experiments:
Assay type in all cases: cell-based, human
[1] = tested on: Vα24^+ NKT cells from G-PBSCs; experiment: Expansion of Vα24+ NKT cells from G-PBSCs by α-GalCer (flow cytometry); details: IL-2 and α-GalCer (FIG. 5)
[2] = tested on: Vα24^+ NKT cells from G-PBSCs; experiment: as above
Experimental: (§1) Buffy coat (crude PBMCs), prepared from 400 ml of whole blood drawn from a healthy person, was supplied by the Japanese Red Cross Blood Center. A cell fraction containing PBSCs (crude G-PBSCs) was obtained from patients undergone chemotherapy followed by a dose of 100 to 250 μg/body/day G-CSF subcutaneously for 6 to 10 days (Table 1) by performing apheresis between 2 and 24 hours after the last injection of G-CSF with COBE Spectra™ Cell Separator (LAKE WOOD, Colo. USA 80215) (Hematopoietic Stem Cells: Biology and Therapeutic Applications. Levit DJ, Mertelsmann R(eds), Marcel Dekker, Inc., New York, 1995, 611-630).
(§2) From the obtained crude PBMCs and crude G-PBSCs, mononuclear cell fractions (referred to as “PBMCs” and “G-PBSCs”, respectively) were prepared using Lympho-sepal density-gradient medium (Immuno-Biological Laboratories Gunma, Japan).
(§3) PBMCs and G-PBSCs obtained in (1) were cultured with RPMI-1640 supplemented with 2 mM L-glutamine, 1% pyruvate, 2% bicarbonate, 100 U/ml penicillin, 100 U/ml streptomycin (GIBCO BRL) in the presence of 100 U/ml IL-2 and 100 ng/ml of α-GlyCer. Cells were incubated in a water-vapor-saturated atmosphere containing 5% CO2 gas at 37° C. The cell number and characteristics of these cultured cells were examined on day 0 (d0) and day 12 (d12). As α-GlyCer, (2S,3S,4R)-1-O-(α-D-galactopyranosyl)-N-hexacosanoyl-2-amino-1,3,4-octadecanetriol; referred to as “α-GalCer”) prepared by Kirin Beer Kabushiki Kaisha was used.
(§4) Flow cytometry of the cultured cells was performed using a FACScan cytometer (Becton Dickinson, Sunyvale, Calif.) as follows. Fluorescein isothiocynate (FITC)-conjugated anti-Vα24 (C15), phycoerythrin (PE)-conjugated anti-Vβ11(C21), PE-conjugated anti-CD3, PE-conjugated anti-CD56, PE-conjugated anti-DC83 and PE-conjugated anti-CD8 were obtained from Immunotech (Marseilelles Cedex, France). FITC-conjugated PE-conjugated anti-CD161, PE-conjugated anti-IL-2Rβ, PE-conjugated anti-HLA-DR and PE-conjugated anti-CD4 were obtained from Becton Dickinson. PE-conjugated anti-CD86 was obtained from Pharmingen (San Diego, Calif.). PE-conjugated anti-CD57 was obtained from SIGMA (Saint Louis, Mo.) and used as iso-type controls. Cultured cells were harvested and resuspended in 10% fetal calf serum (FCS)-RPMI1620 medium at a density of 1×10^5/ml. After centrifugation for 3 min at 2000 rpm using MRX-150 high speed refrigerated micro centrifuges (TOMY SEIKO CO., LTD. Tokyo, Japan), the cells were resuspended in 50 μl of PBS containing 1 μl of antibodies described above and incubated for 30 min at 4° C. The cells were then washed twice with PBS, resuspended in PBS and stored at 4° C. until analysis. Data are shown as FSC, SSC, FL-1 indicating Vα24 or CD4, and FL-2 indicating Vβ11, CD8, CD3.

[3] = tested on: Vα24^+ NKT cells from PBMCs; experiment: Expansion of Vα24+ NKT cells from normal PBMCs by α-GalCer (flow cytometry)
Experimental: as §1, §2, §3, §4

[4] = G-PBSCs of cancer patients, 100 ng/ml α-GalCer + 100 U/ml IL-2, day 12, one line per patient (No. 6-10)
[5] = normal PBMCs, 100 ng/ml α-GalCer + 100 U/ml IL-2, day 12, one line per donor (No. 1-5)

CCCCCCCCCCCCCCCCCCCCCCCCCC(=O)N[C@@H](CO[C@H]1O[C@H](CO)[C@H](O)[C@H](O)[C@H]1O)[C@H](O)[C@H](O)CCCCCCCCCCCCCC [α-GalCer, (2S,3S,4R)-1-O-(α-D-galactopyranosyl)-N-hexacosanoyl-2-amino-1,3,4-octadecanetriol]
course of number of Vα24+ NKT cells after day 12 [1]: continue to expand up to day 30 of culture | D12 NKT % α-GalCer (+) [2, 4]: 2.05% and 8.49% and 4.73% and 3.21% and 22.6% | D12 NKT (cell number) α-GalCer (+) [2, 4]: (51660); also recorded: (314130); also recorded: (520300); also recorded: (64200); also recorded: (1414375) | α-GalCer (+)/(−) ([2]; G-PBSCs, day 12, with vs without α-GalCer, one line per patient (No. 6-10)): 205.0 and 196.9 and 101.6 and 114.6 and 673.5 | d12/d0 ([2]; G-PBSCs, with α-GalCer, day 12 vs day 0, one line per patient (No. 6-10)): 34.4 and 314.1 and 104.1 and 32.1 and 1414.4 | amplification in G-PBSCs relative to PBMCs ([2]; day 12, IL-2 and α-GalCer): at least 10 fold | course of number of Vα24+ NKT cells after day 12 ([3]; PBMCs, IL-2 and α-GalCer (FIG. 5)): gradually decrease after day 12 | D12 NKT % α-GalCer (+) [3, 5]: 0.18% and 6.58% and 0.19% and 0.3% and 0.66% | D12 NKT (cell number) α-GalCer (+) [3, 5]: 2376 and 24346 and 9500 and 18300 and 20328 | α-GalCer (+)/(−) ([3]; normal PBMCs, day 12, with vs without α-GalCer, one line per donor (No. 1-5)): 2.2 and 15.5 and 1.0 and 4.1 and 4.5 | d12/d0 ([3]; normal PBMCs, with α-GalCer, day 12 vs day 0, one line per donor (No. 1-5)): 1.6 and 4.1 (2×) and 1.4 and 6.1

— patent US20040009594A1, “Method for amplifying natural killer t cells” (priority 2000, published 2004)
